Assay [1] relates to PGP-induced PMN influx in the mouse lung. Nature of the assay: PGP-induced PMN influx in the mouse lung (lung-wash cell counts). The assay is classed as in vivo, Balb/c mice. Particulars: for Eos in lung-wash liquid / Monos in lung-wash liquid / Neutros in lung-wash liquid / Total cells in lung-wash liquid: PBS pre-treatment, atomization of the substance (10^-3 M, 30 min), 5 h after onset, ± SEM; for Influx of neutrophilic and eosinophilic granulocytes in the lungs: atomization of the substance. How it is done:
Solutions were prepared of N—Ac-PGP (0.36 mg/ml; 10^−3 M) and N-methyl-PGP (0.32 mg/ml; 10^−3 M) in phosphate-buffered physiological salt (PBS). In an atomizing chamber, 6-8 weeks old Balb/c mice (groups of 4 mice) were subjected for 30 minutes to either N-acetyl-PGP or N-methyl-PGP. Control mice only received PBS. One hour prior to subjection in the atomizing chamber and one hour after the start of subjection each mouse received 50 μl of 1 mg/ml 4RTR. The treatment is outlined in the Table I below.
5 Hours after the onset of subjection the mice were sacrificed by administering an overdose of Nembutal. After the application of a tracheal canula the lungs were washed with 4 ml PBS. The lung-wash liquid was centrifuged (5 min.; 4° C.; 580 g) and the cell pellet was taken up in 150 μl PBS. The cells were counted under the microscope. To distinguish between neutrophilic and eosinophilic granulocytes and mononuclear cells (haematoxylin/eosin dye, H/E dye: Diff-Quick, Merz & Dade, A. G. Dübingen, Switzerland), the cytospin technique was applied (Buckley, T. L. and Nijkamp, F. P., “Airways hyperreactivity and cellular accumulation in a delayed-type hypersensitivity reaction in the mouse: modulation by capsaicin-sensitive nerves”. Am. J. Respir. Crit. Care Med. 149: 400-407 (1994)).

The subject of assay [2] is inflammatory cells in the bronchial-alveolar liquid. The assay is classed as in vivo, C57B1/6J mice. The following applies: for Number PMNs in bronchial-alveolar liquid / Total number infl. cells in bronchial-alveolar liquid: substance alone, aerosol on day 0, 2 and 7, 24 h after final treatment (day 8), n=3. As for the experimental part: (§1) On day 0, 2 and 7, two groups C75Bl/6J mice received 30 minutes' treatment with an aerosol (in an atomizing chamber as described in example 1) comprising (i) vehicle (phosphate-buffered physiological salt solution), (ii) N—AcPGP (0.4 mg/ml) or (iii) N—AcPGP (0.4 mg/ml) and 4-RTR (1 mg/ml). 30 minutes prior to the aerosol, the mice of group (i) and (ii) received intranasal vehicle and the mice of group (iii), 4RTR (1 mg/ml). […] (see Table III).

The subject of assay [3] is alveolar dilatation (lung emphysema). Nature of the assay: Lung emphysema induced by N-AcPGP: mean linear intercept (Lm). Particulars: N-AcPGP aerosol day 0, 2, 7; lungs on day 21; FIG. 1. The assay is classed as in vivo, C75Bl/6J mice. How it is done:
as §1
On day 21 the mice of the second group (which on day 0, 2, and 7 were treated in the same manner as the mice of the first group), were sacrificed by means of an overdose of anaesthetic (Nembutal) and the lungs were isolated and fixed by filling the lungs with Carnoy's fixative under a liquid pressure of 25 cm. The lungs were prepared for histological analysis. The mean linear intercept (Lm), indicative for alveolar dilatation, was calculated by placing a grid over the illustrations of 5 separate fields (300× magnification) per mouse lung. The total length of the lines was divided by the number of intercepts, resulting in the Lm, providing a measure for the average size of the bronchial volume of the lung.

As for N-acetyl-Pro-Gly-Pro [N-AcPGP], in assay [1], the “Eos in lung-wash liquid” value is recorded as 1.1 ± 0.6 ×10^4 cells/ml, the “Monos in lung-wash liquid” value is on record as 28.3 ± 8.6 ×10^4 cells/ml, the “Neutros in lung-wash liquid” value is 20.1 ± 7.5 ×10^4 cells/ml and the “Total cells in lung-wash liquid” value is listed as 49.5 ± 3.1 ×10^4 cells/ml. The “Influx of neutrophilic and eosinophilic granulocytes in the lungs” value in assay [1] is “results in the influx of neutrophilic and eosinophilic granulocytes in the lungs”. Further, the “Increase of the total number of inflammatory cells in the bronchial-alveolar washing liquid in comparison with the vehicle control” value in assay [2] (N-AcPGP 0.4 mg/ml aerosol day 0, 2, 7, day 8) is 2 fold. Further, in assay [2], the “Number PMNs in bronchial-alveolar liquid” value is listed as 11.7 ± 0.8 ×10^5 and the “Total number infl. cells in bronchial-alveolar liquid” value was 55 ± 1 ×10^5. Further, in assay [3], the “Mean linear intercept (Lm), indicative for alveolar dilatation” value is on record as “significant increase”.
In the case of N-methyl-Pro-Gly-Pro [N-methylPGP], in assay [1], the “Eos in lung-wash liquid” value is 0.2 ± 0.1 ×10^4 cells/ml, the “Monos in lung-wash liquid” value is recorded as 33.9 ± 3.4 ×10^4 cells/ml, the “Neutros in lung-wash liquid” value is 11.9 ± 3.6 ×10^4 cells/ml and the “Total cells in lung-wash liquid” value was 46.1 ± 3.2 ×10^4 cells/ml. Moreover, the “Influx of neutrophilic and eosinophilic granulocytes in the lungs” value in assay [1] was “results in the influx of neutrophilic and eosinophilic granulocytes in the lungs”.
On to FMLP, for which, in assay [2], the “Number PMNs in bronchial-alveolar liquid” value was 10.7± 3 ×10^5 and the “Total number infl. cells in bronchial-alveolar liquid” value was 61 ± 5 ×10^5.

The values above are taken from patent US7410806B2, “Compound for inhibiting the influx of polymorphonuclear leukocytes (PMNs) in a tissue, its selection, pharmaceutical compositions and use” (Fornix Biosciences N.V., priority 1999, dated 2008).
